According to patent US20260272943A1, “Acyl Ethyl Ester Polycyclic Compound, and Pharmaceutical Composition and Use Thereof” (priority 2023, published 2026):
Values after ≈ are worked out from the molar mass of the structure shown.

What was measured:
[1] = PK study in rats, single oral gavage; format: in vivo; conditions: SD rats, single oral gavage 3.0 mg/kg
Experimental: SD rats were administered in a single oral gavage administration with different groups of drugs, including compound I-1-1-2, compound I-1-1-3, compound I-1-1-6, compound I-20, compound II-5, and Baloxavir Marboxil. After administration, plasma at different time points were collected to detect the drug content, and the pharmacokinetic parameters of different groups of drugs in SD rats were calculated and compared.
48 SD rats, weighing 180 g-220 g, with half male and half female, were randomly assigned to 6 groups according to their body weight, with 8 rats in each group. Animal grouping information was as follows:
(§1) After SD rats were randomly assigned to groups, they were fasted for more than 12 hours before administration and were allowed to drink water freely. Drinking water was prohibited from 1 hour before administration to 1 hour after administration. Food was provided 4 hours after administration. Each group was administered with a single oral gavage dose of 3.0 mg/kg. Approximately 0.2 mL of jugular vein blood was collected at 0 h before administration and 5 min, 10 min, 15 min, 30 min, 1 h, 2 h, 4 h, 6 h, 10 h, 24 h and 30 h after administration, and placed in EDTA-K2 anticoagulation tubes.
(§2) After the whole blood was collected, the plasma was separated by centrifugation at 4000 rpm for 10 min at 4° C., and then stored in a refrigerator at −80° C. for testing. The plasma drug concentration of samples in each group was determined by LC-MS/MS.
PK parameters were calculated using a non-compartmental model in Phoenix winnonlin 8.0. Data analysis included Cmax, Tmax, AUC0-t, AUC0-∞∞, t1/2 and other pharmacokinetic parameters.

[2] = system: H1N1 influenza A virus strain A/FM/1/47; experiment: Anti-influenza virus activity in vitro (inhibition of virus replication in MDCK cells); format: cell-based; conditions: 72 h, read-out: EC50 for in vitro inhibition of replication of H1N1 (FM1) influenza virus
[3] = PK study in cynomolgus monkeys, single oral gavage; format: in vivo; conditions: single oral gavage 5.0 mg/kg
Experimental: Cynomolgus monkeys were administered with a single oral gavage with different groups of drugs, including compound I-1-1-2, compound I-1-1-3 and Baloxavir Marboxil. After administration, plasma at different time points were collected to detect the drug content, and the pharmacokinetic parameters of different groups of drugs in cynomolgus monkeys were calculated and compared.
24 cynomolgus monkeys, aged 3-5 years old and weighing 3 kg-7 kg, with half male and half female, were used and randomly assigned to 3 groups according to their body weight, with 8 monkeys in each group. Animal grouping information was as follows:
as §1, with “After cynomolgus monkeys” for “After SD rats”, “of 5.0” for “of 3.0”, “Approximately 1.0” for “Approximately 0.2”, “h, 8 h, 12” for “h, 10”, “24 h, and 48” for “24”, “h (D2)” for “h and 30 h”
as §2
PK parameters were calculated using non-compartmental model in a Phoenix winnonlin 8.0. Data analysis included Cmax, Tmax, AUC0-t, AUC0-∞∞, t1/2 and other pharmacokinetic parameters.

Structure (SMILES) | Bioavailability (Cmax and AUC0-t) compared with Compound I-20 and Compound II-5 groups [1] | EC50 [2] | further results
CC(=O)OC(C)Oc1c2n(ccc1=O)N([C@@H]1c3ccccc3SCc3c1ccc(F)c3F)[C@@H]1COCCN1C2=O (some centres unmarked) [Compound I-1-1-3] | significantly improved | 0.32 µg/mL (≈ 0.562 µM) | Bioavailability (Cmax and AUC0-t) compared with Baloxavir Marboxil group [1]: significantly improved; Bioavailability (Cmax and AUC0-t) compared with Baloxavir Marboxil group [3]: significantly improved
CC(=O)OCOc1c2n(ccc1=O)N([C@@H]1c3ccccc3SCc3c1ccc(F)c3F)[C@@H]1COCCN1C2=O [Compound II-5, reference compound] | – | 0.32 µg/mL (≈ 0.576 µM) | –
CC(=O)OC(C)Oc1c2n(ccc1=O)N([C@@H]1c3ccccc3[Se]Cc3c1ccc(F)c3F)[C@@H]1COCCN1C2=O (some centres unmarked) [Compound I-1-1-6] | – | 0.32 µg/mL (≈ 0.519 µM) | –
[2H]C([2H])([2H])C(=O)OC(C)Oc1c2n(ccc1=O)N([C@@H]1c3ccccc3SCc3c1ccc(F)c3F)[C@@H]1COCCN1C2=O (some centres unmarked) [Compound I-20, reference compound] | – | 0.32 µg/mL (≈ 0.559 µM) | –
COC(=O)OCOc1c2n(ccc1=O)N([C@@H]1c3ccccc3SCc3c1ccc(F)c3F)[C@@H]1COCCN1C2=O [Baloxavir Marboxil, reference compound] | significantly improved | 0.32 µg/mL (≈ 0.56 µM) | –
CC(=O)O[C@H](C)Oc1c2n(ccc1=O)N([C@@H]1c3ccccc3SCc3c1ccc(F)c3F)[C@@H]1COCCN1C2=O [Compound I-1-1-2] | significantly improved | 0.032 µg/mL (≈ 0.0562 µM) | Bioavailability (Cmax and AUC0-t) compared with Baloxavir Marboxil group [1]: significantly improved; Half-life (t1/2) rank among groups [1]: longest half-life; Bioavailability (Cmax and AUC0-t) compared with Baloxavir Marboxil group [3]: significantly improved; Exposure rank among groups [3]: highest exposure; Half-life rank among groups [3]: longest half-life
CC(=O)O[C@@H](C)Oc1c2n(ccc1=O)N([C@@H]1c3ccccc3SCc3c1ccc(F)c3F)[C@@H]1COCCN1C2=O [Compound I-1-1-1] | – | 0.32 µg/mL (≈ 0.562 µM) | –
